The values below come from patent US20080269298A1, “Benzimidazol-1-YL-thiophene compounds for the treatment of cancer” (priority 2002, published 2008).

Some results are limits rather than exact numbers.

The target in assay [1] is T1, PLK1 kinase domain (Homo sapiens, UniProt P53350).
T1 construct: made in house; host or cells: baculovirus-infected T. ni insect cells
As to the kind of experiment: Assay for Inhibition of PLK1 (SPA enzyme activity). Particulars: 2 μM ATP, read-out: Ave pIC50 PLK Enzyme Inhibition (converted). The assay is classed as biochemical. As for the experimental part:
All procedures were performed at 4° C. Cells were lysed in so mM HEPES, 200 mM NaCl, so mM imidazole, 5% glycerol; pH 7.5. The homogenate was centrifuged at 14K rpm in a SLA-1500 rotor for 1 hr and the supernatant filtered through a 1.2 micron filter. The supernatant was loaded onto a Nickel chelating Sepharose (Amersham Pharmacia) column and washed with lysis buffer. Protein was eluted using 20%, 30% and 100% buffer B steps where buffer B is 50 mM HEPES, 200 mM NaCl, 300 mM imidazole, 5% glycerol; pH 7.5. Fractions containing PLK were determined by SDS-PAGE. Fractions containing PLK were diluted five-fold with so mM HEPES, 1 mM DTT, 5% glycerol; pH 7.5, then loaded on an SP Sepharose (Amersham Pharmacia) column. After washing the column with so mM HEPES, 1 mM DTT, 5% glycerol; pH 7.5, PLK was step eluted with so mM HEPES, 1 mM DTT, 500 mM NaCl; 5% glycerol; pH 7.5. PLK was concentrated using a 10 kDa molecular weight cutoff membrane and then loaded onto a Superdex 200 gel filtration (Amersham Pharmacia) column equilibrated in 25 mM HEPES, 1 mM DTT, 500 mM NaCl, 5% glycerol; pH 7.5. Fractions containing PLK were determined by SDS-PAGE. PLK was pooled, aliquoted and stored at −80° C. Samples were quality controlled using mass spectrometry, N-terminal sequencing and amino acid analysis.
B. Enzyme activity+/−inhibitors was determined as follows:
Compounds were added to the plate (1 μl in […]). […] Reaction Mix B is prepared as follows at 4° C.: • Reaction Mix B (Enzyme Mix) • 25 mM HEPES, pH 7.2 • 15 mM MgCl2 • 0.15 mg/ml BSA • 2 mM DTT • 2-10 nM PLK1 kinase domain
Reaction Mix A (20 μl) is added per well. Reaction Mix B (20 μl) is added per well. Incubate 1.5 hrs. at RT. The enzymatic reaction is stopped with 175 μl of SPA/EDTA bead mix (29 mM EDTA, 2.5 mg/ml Streptavidin-coated SPA in Standard Dulbecco's PBS (without Mg^2+ and Ca^2+), 60 μM ATP). Plates are sealed spun (after a 1 hr incubation at RT) at 1,000×g for 7 min or settled overnight, then plates counted in Packard TopCount for 30 seconds/well.

The subject of assay [2] is prostate (PC3) tumor cell line. Briefly: Methylene Blue Growth Inhibition Assay, PC3. In kind it is cell-based. The following applies: Homo sapiens, 72 h; Cell Line PC3, 3 days; read-out: MeB IC50. On the procedure: (§1) Normal Human foreskin fibroblasts (HFF) and human colon (HCT116, RKO), lung (H460), prostate (PC3), and breast tumor (MCF7) cell lines were cultured in high glucose DMEM (Life Technologies) containing 10% fetal bovine serum (FBS) at 37° C. in a humidified 10% CO2, 90% air incubator. Cells were harvested using trypsin/EDTA, counted using a haemocytometer, and plated in 100 μl of the appropriate media, at the following densities, in a 96-well tissue culture plate (Falcon 3075): HFF 5,000 cells/well, HCT116 3,000 cells/well, RKO 2,500 cells/well, H460 2,000 cells/well, PC3 8,000 cells/well, MCF7 4,000 cells/well. The next day, compounds were diluted in DMEM containing 100 μg/ml gentamicin, at twice the final required concentration, from 10 mM stock solutions in DMSO. 100μ/well of these dilutions were added to the 100 μl of media currently on the cell plates. Medium containing 0.6% DMSO was added to control wells. Compounds diluted in DMEM were added to all cell lines. The final concentration of DMSO in all wells was 0.3%. Cells were incubated at 37° C., 10% CO2 for 3 days. Medium was removed by aspiration. Cell biomass was estimated by staining cells with […] per well methylene blue (Sigma M9140, 0.5% in 50:50 ethanol:water), and incubation at room temperature for at least 30 minutes. Stain was removed, and the plates rinsed under a gentle stream of water, and air-dried. To release stain from the cells 100 μl of solubilization solution was added (1% N-lauroyl sarcosine, Sodium salt, Sigma L5125, in PBS), and plates were shaken gently for about 30 minutes. Optical density at 620 nm was measured on a microplate reader. Percent inhibition of cell growth was calculated relative to vehicle treated control wells. Concentration of compound that inhibits 50% of cell growth (IC50) was interpolated using nonlinear regression (Levenberg-Marquardt) and the equation, y=Vmax*(1-(x/(K+x)))+Y2, where “K” was equal to the IC50. In Table 1, +=10−>30 uM; ++=1−10 uM: +++=<1 uM.

Assay [3] deals with colon (HCT116) tumor cell line. As to the kind of experiment: Methylene Blue Growth Inhibition Assay, HCT116. In kind it is cell-based. The following applies: Homo sapiens, HCT-116, 72 h; Cell Line HCT116, 3 days; read-out: MeB IC50. As for the experimental part: as §1
Assay [4] deals with Normal Human foreskin fibroblasts (HFF). As to the kind of experiment: Methylene Blue Growth Inhibition Assay, HFF. The assay is classed as cell-based. Particulars: 72 h, Cell Line HFF, 3 days, read-out: MeB IC50. As for the experimental part:
as §1

Assay [5] concerns lung (H460) tumor cell line. As to the kind of experiment: Methylene Blue Growth Inhibition Assay, H460. Particulars: Homo sapiens, NCI-H460, 72 h; Cell Line H460, 3 days; read-out: MeB IC50. In kind it is cell-based. On the procedure: as §1
Assay [6] concerns breast tumor (MCF7) cell line. Briefly: Methylene Blue Growth Inhibition Assay, MCF7. The assay is classed as cell-based. The following applies: Homo sapiens, 72 h; Cell Line MCF7, 3 days; read-out: MeB IC50. As for the experimental part:
as §1

Assay [7] deals with colon (RKO) tumor cell line. As to the kind of experiment: Methylene Blue Growth Inhibition Assay, RKO. Particulars: Homo sapiens, 72 h, 3 days, read-out: MeB IC50. In kind it is cell-based. As for the experimental part:
as §1

T1 sequence (P53350 21-346): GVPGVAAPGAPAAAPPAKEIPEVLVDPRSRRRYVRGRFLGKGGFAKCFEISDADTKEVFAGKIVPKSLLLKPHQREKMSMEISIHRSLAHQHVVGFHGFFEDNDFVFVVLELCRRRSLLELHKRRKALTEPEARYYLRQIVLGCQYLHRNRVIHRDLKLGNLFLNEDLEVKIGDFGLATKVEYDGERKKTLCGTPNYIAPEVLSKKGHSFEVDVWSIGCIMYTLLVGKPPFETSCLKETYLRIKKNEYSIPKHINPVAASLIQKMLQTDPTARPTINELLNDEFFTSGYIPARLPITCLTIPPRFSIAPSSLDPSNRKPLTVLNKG

Turning to `O=C(NO)c1sc(-n2cnc3ccccc32)cc1OCc1ccccc1` [Example 144, 5-(1H-Benzimidazol-1-yl)-3-(benzyloxy)-N-hydroxythiophene-2-carboxamide], in assay [1], the IC50 is 0.1 to 10 µM.

Take `NC(=O)c1sc(-n2cnc3ccc(C(F)(F)F)cc32)cc1OCc1ccccc1Br` [Example 119, 3-[(2-Bromobenzyl)oxy]-5-[6-(trifluoromethyl)-1H-benzimidazol-1-yl]thiophene-2-carboxamide]: the IC50 is above 10 µM in assay [2]; below 0.1 µM in assay [1]; 1 to 10 µM in assay [3]; above 10 µM in assay [4]; 1 to 10 µM in assay [5]; 1 to 10 µM in assay [6]. The IC50 in assay [7] is 1 to 10 µM.

Regarding `COc1cc2ncn(-c3cc(OCc4ccccc4C(F)(F)F)c(C#N)s3)c2cc1OC` [Example 146, 5-(5,6-Dimethoxy-1H-benzimidazol-1-yl)-1-{[2-(trifluoromethyl)benzyl]oxy}thiophene-2-carbonitrile], in assay [1], the IC50 was 0.1 to 10 µM.

On to `NC(=O)c1sc(-n2cnc3cc(Cl)ccc32)cc1OCc1ccccc1` [Example 84, 3-(Benzyloxy)-5-(5-chloro-1H-benzimidazol-1-yl)thiophene-2-carboxamide], for which the IC50 in assay [1] is below 0.1 µM.

As for `COc1cc2ncn(-c3cc(OCc4ccccc4C(F)(F)F)c(C(N)=O)s3)c2cc1OC` [Example 63, 5-(5,6-Dimethoxy-1H-benzimidazol-1-yl)-3-{[2-(trifluoromethyl)-benzyl]oxy}thiophene-2-carboxamide], the IC50 in assay [2] was 1 to 10 µM; in assay [1], below 0.1 µM; in assay [3] it was below 1 µM; in assay [4], 1 to 10 µM; in assay [5] it was below 1 µM; in assay [6], below 1 µM. For the same molecule, the IC50 in assay [7] was below 1 µM.

On to `COc1cc2ncn(-c3cc(OCc4c(Cl)cccc4Cl)c(C(N)=O)s3)c2cc1OC` [Example 64, 3-[(2,6-Dichlorobenzyl)oxy]-5-(5,6-dimethoxy-1H-benzimidazol-1-yl)thiophene-2-carboxamide], for which the IC50 in assay [2] was above 10 µM; in assay [1] it was below 0.1 µM; in assay [3] it was 1 to 10 µM; in assay [4], above 10 µM; in assay [5] it was below 1 µM; in assay [6] it was 1 to 10 µM. The IC50 in assay [7] lay within 1 to 10 µM.

As to `COc1cc2ncn(-c3cc(OCc4ccccc4C(F)(F)F)c(-c4nnn[nH]4)s3)c2cc1OC` [Example 147, 5,6-Dimethoxy-1-(5-(1H-tetraazol-5-yl)-4-{[2-(trifluoromethyl)-benzyl]oxy}thien-2-yl)-1H-benzimidazole], the IC50 in assay [2], in assay [3], in assay [4], in assay [5], in assay [6] and in assay [7] was above 10 µM each time.

`COc1cc2ncn(-c3cc(OCCCc4ccccc4)c(C(N)=O)s3)c2cc1OC` [Example 115, 5-(5,6-Dimethoxy-1H-benzimidazol-1-yl)-3-(3-phenylpropoxy)thiophene-2-carboxamide]: the IC50 in assay [2] is above 10 µM; in assay [3], 1 to 10 µM; in assay [4], above 10 µM; in assay [5] it was 1 to 10 µM; in assay [6], 1 to 10 µM; in assay [7], 1 to 10 µM.

Take `COc1cc2ncn(-c3cc(OCC4CCCCC4)c(C(N)=O)s3)c2cc1OC` [Example 111, 3-(Cyclohexylmethoxy)-5-(5,6-dimethoxy-1H-benzimidazol-1-yl)thiophene-2-carboxamide]: the IC50 was 1 to 10 µM in assay [2]; 1 to 10 µM in assay [3]; above 10 µM in assay [4]; 1 to 10 µM in assay [5]; 1 to 10 µM in assay [6]; 1 to 10 µM in assay [7].

As to `COc1cccc(COc2cc(-n3cnc4ccccc43)sc2C(N)=O)c1` [Example 14, 5-(1H-Benzimidazol-1-yl)-3-[(3-methoxybenzyl)oxy]-2-thiophenecarboxamide], the IC50 in assay [1] was below 0.1 µM.

In the case of `COc1cc2ncn(-c3cc(OCCc4ccccc4)c(C(N)=O)s3)c2cc1OC` [Example 114, 5-(5,6-Dimethoxy-1H-benzimidazol-1-yl)-3-(2-phenylethoxy)-thiophene-2-carboxamide], the IC50 in assay [2], in assay [3], in assay [4], in assay [5], in assay [6] and in assay [7] was above 10 µM throughout.

In the case of `NC(=O)c1sc(-n2cnc3ccccc32)cc1OCc1ccccc1C(F)(F)F` [Example 116, 5-(1H-Benzimidazol-1-yl)-3-{[2-(trifluoromethyl)benzyl]oxy}thiophene-2-carboxamide], the IC50 was above 10 µM in assay [2]; 1 to 10 µM in assay [3]; 1 to 10 µM in assay [4]; below 1 µM in assay [5]; below 1 µM in assay [6]; below 1 µM in assay [7].

In the case of `Cc1cccc(COc2cc(-n3cnc4ccccc43)sc2C(N)=O)c1` [Example 13, 5-(1H-Benzimidazol-1-yl)-3-[(3-methylbenzyl)oxy]-2-thiophenecarboxamide], the IC50 in assay [1] was below 0.1 µM.

Consider `NC(=O)c1sc(-n2cnc3ccccc32)cc1OCc1cccc(Cl)c1` [Example 15, 5-(1H-Benzimidazol-1-yl)-3-[(3-chlorobenzyl)oxy]-2-thiophenecarboxamide], for which, in assay [1], the IC50 was below 0.1 µM.

`Cc1ccccc1COc1cc(-n2cnc3ccccc32)sc1C(N)=O` [Example 4, 5-(1H-Benzimidazol-1-yl)-3-[(2-methylbenzyl)oxy]-2-thiophenecarboxamide]: in assay [1], the IC50 was below 0.1 µM.

With `Cc1ccccc1COc1cc(-n2cnc3cc(O)ccc32)sc1C(=O)O` [Example 141, 5-(5-Hydroxy-1H-benzimidazol-1-yl)-3-[(2-methylbenzyl)oxy]-thiophene-2-carboxylic acid], the IC50 in assay [1] is below 0.1 µM.

For the molecule `COc1cc2ncn(-c3cc(OCc4ccccc4C(F)(F)F)c(C(=O)O)s3)c2cc1OC` [Example 75], the IC50 in assay [2] is above 10 µM; in assay [3], 1 to 10 µM; in assay [4] it was above 10 µM; in assay [5], above 10 µM; in assay [6] it was above 10 µM; in assay [7] it was above 10 µM.
